# From US8557804B2, “Nicotinic receptor agonists for the treatment of inflammatory diseases” (priority 2002, dated 2013)
# Several values for one entry are separate records, joined by “and”; a condition that tells them apart may be missing. Equal entries are not always repeated.
# How the values were obtained:
# [1] = tested on: CD86 expression on alveolar macrophages; assay: CD86 expression in SR-stimulated BAL cells of a normal patient; assay type: cell-based, human
# Experimental: A broncho-alveolar lavage was performed on a normal patient, and alveolar macrophages were isolated.
# [2] = tested on: TNF-α mRNA expression in AMJ2-C11 cells; assay: TNF-α mRNA expression by RT-PCR in AMJ2-C11 cells; assay type: cell-based, mouse; conditions: SR-stimulated 24 h, 40 and 80 μM
# Experimental: (§1) The effect of nicotine or DMPP treatment on AMJ2-C11 cells was tested on TNF-α, IL-10 mRNA expression by RT-PCR. These cytokines are involved in the development of pulmonary inflammatory diseases such as HP, asthma and sarcoidosis (52-55). […] Reference is made to FIG. 3 where results are expressed as a % of expression, 100% being attributed to the LPS alone group. The intensity of the band was obtained by dividing the intensity of the TNF-α band by that of β-actin. […] Reference is made to FIG. 4 where results are expressed as described in FIG. 5.
# [3] = tested on: lung resistance after metacholine challenge; assay: Airway hyper-reactivity / lung resistance to metacholine in asthmatic mice (FlexiVENT); assay type: in vivo; conditions: 0.5 mg/kg intranasal DMPP
# Experimental: Airway hyper-reactivity (AHR) in response to metacholine was measured in anesthetized, tracheotomized, ventilated mice using a computer-controlled ventilator (FlexiVENT™).
# Increasing doses of metacholine (0 mg/kg-32.5 mg/kg) were administered through the jugular vein.
# Lung response to a broncho-constrictive agent, metacholine, was measured by a Flexi-vent® apparatus. Ovalbumin-sensitized animals were treated intra-nasally with ASM-002 (4 mg/kg) during 3 days and 10 minutes prior to the metacholine challenge and compared to untreated OVA-sensitized animals. A negative control group of un-sensitized animals and a positive control group that received Salbutamol (Ventolin) 10 minutes before the metacholine challenge were also included.
# [4] = tested on: allergic inflammation of the lungs in ovalbumin-sensitized mice; assay: Ovalbumin-sensitized mouse asthma model, BAL cell counts; assay type: in vivo, Balb/c mice
# Experimental: (§2) Groups of Balb/c mice were sensitized by intra-peritoneal injection of 20 μg OVA protein (chicken egg albumin; Sigma-Aldrich) emulsified in 2 mg aluminum hydroxide in PBS. After 4 weeks, challenge doses of 1.5%/50 μl OVA were administered intranasally. The challenge was performed daily for 3 consecutive days and then the mice assessed for allergic inflammation of the lungs 24 h after the last aerosol exposure. Groups of mice were treated with various concentrations of DMPP during the challenge period. Broncho-alveolar lavage (BAL) was performed and the fluid centrifuged at 400 g to separate cells from liquid.
# Ovalbumin-sensitized mice (n=8) were challenged with the allergen and simultaneously treated intra-nasally with increasing concentrations of ASM-002 (0.5 to 4 mg/kg/d) for 3 days. The number of cells recovered by broncho-alveolar lavage was used as a measure of lung inflammation.
# [5] = tested on: TNF; assay: TNF levels in BAL fluid of SR-instilled mice; assay type: in vivo; conditions: DMPP-treated mice, SR instillation
# Text: The Intranasal instillation of Saccharopolyspora rectivirgula (SR) antigens, the causative agent for farmer's lung, to mice, induces a prominent inflammatory response in the lung. Neutrophils are the first inflammatory cells recruited at the site of inflammation.
# [6] = tested on: IL-4 mRNA expression; assay: IL-4 mRNA expression induced by a 24 h LPS stimulation; assay type: cell-based; conditions: LPS stimulation 24 h, 40 to 160 μM
# Experimental: The effect of agonist treatment on mRNA expression of IL-4, a cytokine that is well known to be involved in the development of asthma, was also tested (53). […] Cells were treated with different doses (40 to 160 μM for both nicotine and DMPP).
# [7] = tested on: CD80 expression on AMJ2-C11 cells; assay: B7 (CD80) molecule expression on AMJ2-C11 cells; assay type: cell-based, mouse; conditions: 40 μM for 48 h
# Experimental: The effects of nicotine and DMPP on B7 (CD80) molecule expression were tested in vitro. AMJ2-C11 cells (mouse alveolar macrophages, from the ATCC) were incubated with 40 μM nicotine or DMPP and stimulated with LPS (0.1 μg/ml) or SR antigen (50 μg/ml) for 48 hours.
# [8] = tested on: blood eosinophils; assay: Blood eosinophil transmigration through an artificial basement membrane (Matrigel coated chemotaxis chamber); assay type: cell-based; conditions: purified blood eosinophils, Matrigel
# Text: Infiltration of eosinophils and other inflammatory cells into lung tissues is an important feature of asthma and the cause of airway inflammation and hyper-responsiveness. The passage of inflammatory cells from the circulation to the lung involves migration through the vascular endothelium, the basement membrane, and extra-cellular matrix components. Inflammatory cells cross the basement membrane by producing proteinases. In these preliminary in vitro experiments, the effects of various nicotinic agonists on the migration of purified blood eosinophils through an artificial basement membrane (Matrigel® coated chemotaxis chamber) were investigated. […] Results are expressed as a percentage of inhibition (agonists-treated cells) compared to the control condition without the agonists.
# [9] = tested on: TNF release by human blood monocytes; assay: cells; assay type: cell-based; conditions: 40 μM, mean of 5 subjects
# Experimental: Human monocytes were isolated from the blood of asthmatic patients by Ficoll-paque density gradient, let to adhere to tissue culture plates and stimulated with LPS (100 ng/ml) for 18 hours at 37° C. with or without increasing concentrations of nicotine. The release of TNF, a potent pro-inflammatory mediator, was measured in the cell culture supernatant by the ELISA method. Results are expressed as a percentage release from LPS-stimulated untreated cells (FIG. 28).
# Tumor necrosis factor (TNF) is a mediator released in inflammatory states.
# Human blood monocytes were isolated by Ficoll-paque density gradient, let to adhere to tissue culture plates and stimulated with LPS (100 ng/ml) for 18 hours at 37° C. with or without increasing concentrations of nicotine analogues.
# [10] = tested on: IFN-γ mRNA in T lymphocytes isolated from BAL; assay: IFN-γ mRNA in PHA-stimulated BAL lymphocytes from HP patients; assay type: cell-based, human
# Experimental: Since one goal was to treat patients with DMPP or similar drugs, the effect of this drug was verified on lymphocytes from patients with HP. BAL were performed on patients with HP. Lymphocytes were isolated from the other BAL cells, stimulated with PHA and incubated with DMPP. The dose-response of DMPP were tested on cytokine mRNA production (by RT-PCR) for IFN-γ.
# [11] = tested on: IL-5; assay: BAL IL-5 levels in the ovalbumin mouse asthma model; assay type: in vivo, Balb/c mice; conditions: 0.5 mg/kg treated-group
# Experimental: as §2
# The supernatants were used to determine lung IL-5 levels. The total, number of BAL cells and differential cell counts were evaluated.
# [12] = tested on: IL-10 mRNA expression in AMJ2-C11 cells; assay: IL-10 mRNA expression by RT-PCR in AMJ2-C11 cells; assay type: cell-based, mouse; conditions: SR-stimulated 24 h, 80 μM
# Experimental: as §1
structure (smiles),measurement,setting,value
"C[N+]1(C)CCN(c2ccccc2)CC1 [DMPP, Dimethylphenylpiperazinium]",less CD86 expressed than non-treated cells,[1]; SR-stimulated BAL cells,50%
same,expression of CD86 relative to non-treated cells,[1]; SR-stimulated alveolar macrophages,about half of the expression
same,reduction of TNF-α mRNA expression,[2],up to 60%
same,% of augmentation of lung resistance compared to asthmatic mice,[3]; metacholine 0-32.5 mg/kg,reduced
same,PC200 (provocative challenge dose of 200% lung resistance augmentation) compared to asthmatic mice,"[3]; p=0.04, n=6",significantly reduced
same,eosinophils and lymphocytes in BAL,"[4]; first dose response, all groups (n=8; p<0.05)",significantly reduced
same,total cell counts in BAL,"[4]; intra-peritoneal DMPP, 0.5 and 2.0 mg/kg doses, OVA challenged mice",significantly reduced
same,eosinophil and lymphocyte counts in BAL,"[4]; second dose response, 0.1 and 0.5 mg/kg doses",significantly reduced
same,most effective dose for the anti-inflammatory effect,"[4]; second dose response, IP",0.5 mg/kg
same,BALF TNF levels,[5],decreased significantly
same,IL-4 mRNA expression,[6],completely blocked
same,percentage of expression of CD80,"[7]; LPS (0.1 μg/ml) stimulated, LPS alone 38%",17%
same,percentage of expression of CD80,"[7]; SR antigen (50 μg/ml) stimulated, SR alone 35%",20%
same,inhibition of eosinophil transmigration,[8],dose-related inhibition
same,TNF release,[9],inhibits TNF release
same,expression of IFN-γ mRNA,[10],reduced expression of IFN-γ
same,IL-5 levels in BAL,[11],significant inhibitory effect
same,reduction (drop) of IL-10 mRNA expression,[12],87% and 90%
